Source: ChEMBL document CHEMBL1128009, “Stereoselectivity of the positive inotropic effects of newer diazinone-cardiotonics” (Bioorg Med Chem Lett, 1994)

How the values were obtained:
[1] = Calcium sensitizing activity (No Effect); type: functional
Phosphodiesterase 3 = Phosphodiesterase 3 (Homo sapiens, UniProt Q14432+Q13370); assay: Inhibition of phosphodiesterase 3; type: protein assay
[2] = Calcium sensitizing activity; type: functional
[3] = Calcium sensitizing activity (Active); type: functional

Row | SMILES | IC50 (Phosphodiesterase 3) [µM] | EC50 [1] | EC50 [2] [µM] | EC50 [3]
1 | CC1CC(=O)NN=C1c1cc2ccc(OCCN3CCCCC3)cc2s1 (stereo in doubt; (-)) | 0.08 | Not Active |  | 
2 | COc1ccc(-c2nc3cc(C4=NNC(=O)CC4C)ccc3[nH]2)cc1 (stereo in doubt) [PIMOBENDAN] |  |  | 100 | 
3 | COc1ccc(-c2nc3cc(C4=NNC(=O)CC4C)ccc3[nH]2)cc1 (single isomer, unassigned; (+)) [PIMOBENDAN] |  |  | 152 | 
4 | COc1ccc(C(=O)N2CCCc3cc(C4=NNC(=O)SC4C)ccc32)cc1OC (single isomer, unassigned; (-)) |  |  | > 100 | 
5 | COc1ccc(C(=O)N2CCCc3cc(C4=NNC(=O)SC4C)ccc32)cc1OC (single isomer, unassigned; (+)) |  |  | 1.7 | 
6 | CC1CC(=O)NN=C1c1cc2ccc(OCCN3CCCCC3)cc2s1 (stereo in doubt; (+)) | 14.8 |  |  | Active

The next lines start with results.

Row | IC50 (Phosphodiesterase 3) [µM] | SMILES | EC50 [1] | EC50 [2] [µM] | EC50 [3]
7 | 0.04 | CC1CC(=O)NN=C1c1ccc2[nH]c(-c3cc[nH]n3)nc2c1 (single isomer, unassigned; (-)) [MERIBENDAN] |  | 190 | 
8 | 1.6 | CC1CC(=O)NN=C1c1ccc2[nH]c(-c3cc[nH]n3)nc2c1 (single isomer, unassigned; (+)) [MERIBENDAN] |  | 470 | 
9 | 0.008 | C[C@@H]1CC(=O)NN=C1c1ccc(NN=C(C#N)C#N)cc1 [LEVOSIMENDAN] |  | > 100 | 
10 | 1.5 | CC1CC(=O)NN=C1c1ccc(NN=C(C#N)C#N)cc1 (stereo unspecified) [SIMENDAN] |  | > 100 | 
